The text below walks through data of article PMC9609692, “Alternative Methotrexate Oral Formulation: Enhanced Aqueous Solubility, Bioavailability, Photostability, and Permeability” (Pharmaceutics, 2022).

Series [1] is described as follows: Phase solubility study of MTX in cyclodextrin solutions. The format is physicochemical. The conditions noted are these: MTX with the cyclodextrin, aqueous solution, 25 °C, 1:1 complex. The protocol: The degree of complexation between MTX and β-CDs was determined through phase solubility experiments, as established by Higuchi and Conners. Briefly, an excess of MTX was added to the 10 mL aqueous solution of increasing concentrations (0 to 15 mM) containing each of β-CD, HP-β-CD, M-β-CD, and DM-β-CD. The samples tubes were then vortexed for a few seconds and placed in a water bath maintained at 100 rpm in 25 °C for 5 days (Maxturdy-30; Daihan Scientific, Wonju, Korea) to obtain the saturated complex suspension. The suspension samples obtained were then centrifuged at 10,000 rpm for 10 min and the supernatant was collected, and filtered using a 0.45 µm syringe filter. The samples were then diluted with a mobile phase to obtain the suitable concentrations before being quantified using a HPLC system. All concentrations were made in triplicate (n = 3).
The outcomes of the phase solubility tests were plotted against the known CD and MTX concentration in the sample and the resulting regression profiles was used to derive the association constant (Kα). The apparent association constant (Kα) was calculated from the phase solubility curve according to the following equation:(1) Kα=D :CD/D×CD=Slope/So1−Slope
The complexation efficiency (CE) of the IC system was calculated from the Slope of the phase solubility profiles. (2) CE=D :CD/CD=So×Kα=Slope/1−Slope

A short description of series [2]: Particle size distribution by laser diffraction. Format: physicochemical. The conditions noted are these: powder. Here is the method:
The complete particle size distribution of free MTX powder and all four MTX-CD IC formulations was investigated by laser diffraction (Mastersizer 3000; Malvern Instruments, Malvern, UK). The particle size/distribution is expressed as Dx10, Dx50, and Dx90, taken from the cumulative distribution, where the particle diameters are measured at the 10th, 50th, and 90th percentiles, respectively. The experiments were performed in triplicate.

Series [3] is described as follows: In vivo pharmacokinetic study after oral administration. Also noted: species or system Sprague-Dawley rats. The conditions noted are these: rats, equiv. 20 mg/kg MTX, n = 6. Here is the method:
To assess the in vivo pharmacokinetic parameters of free MTX and MTX-CD IC formulations, 30 male Sprague-Dawley rats (6–8 weeks old, weighing 280 ± 20 g) were used (Nara Biotech., Seoul, Korea). All the animals were fed with a normal laboratory diet and water and left for acclimatization in a laboratory environment for 3 days at 23–25 °C/50–55% RH. Care and handling of animals complied with the provisions of guidelines defined and agreed upon by the Institutional Animal Care and Use Committee at the Kyungpook National University (permit number. 2019-0054).
Before the experiment, the animals were divided into five groups with 6 animals per group and made to fast overnight. Each rat, anesthetized with ether, was fixed on a surgical board in the supine position by a thread. A polyethylene tube containing 50 IU/mL of heparin in saline was inserted into the right femoral artery of the rat for cannulation. Then, either 1 mL aqueous suspension of free MTX or the four MTX-CD IC formulations (Equiv. to 20 mg/kg of MTX) was administered orally to each of the rats using oral gavage. Blood samples (~0.3 mL) were drawn from the planted tube at various time periods of 5, 15, 30, 60, 120, 240, 480, 720, and 1440 min after the oral administration. The samples were then immediately transferred into heparin-containing microtubes and centrifuged at 10,000 rpm for 10 min to extract the plasma. The extracted plasma samples were transferred to other microtubes and stored at −20 °C until further analysis by HPLC.
Plasma (90 μL) was mixed with 10 μL of theophylline solution (1000 μg/mL in MeOH) as the internal standard and 100 μL of methanol, respectively. The samples (200 μL) were then centrifuged at 13,000 rpm for 10 min and the upper clear supernatant layer was drawn and injected into the HPLC system (20 μL) for the quantification of MTX. In addition, the blood samples drawn at pre-dose (0 h) were used to draw a six-point calibration plot. The Slope of the graph was linear with R^2 = 0.995 over the range of 25–2000 ng/mL. The mobile phase composition, flow rate, analytical column used, and UV wavelength of the HPLC method was similar to that described in Section 2.3. The pharmacokinetic (PK) parameters such as maximal plasma concentration (Cmax), time to reach Cmax (Tmax), were obtained from the plasma concentration vs. time plots. Moreover, the area under the plasma concentration vs. time curve (AUC0–∞) was calculated using the linear trapezoidal summation rule and elimination half-life (t1/2), and elimination rate constant (Kel) were obtained using non-compartmental model WinNonlin software (Pharsight Corp., Mountain View, CA, USA). Differences in the PK parameters were assessed with the one-way ANOVA test and a p value of less than 0.05 (p < 0.05) was considered statistically significant.

The nature of series [4]: Photostability assessment. The conditions noted are these: powder, 20 days, 25 °C/60% RH, 1.2 million lux·hr. The format is physicochemical. The protocol:
The free MTX powder and the prepared IC formulations were subjected to UV irradiation for a period of 20 days. The powdered samples were spread over the bottom surface of transparent glass vials and stored at 25 °C/60% RH in a photostability chamber (Model 6545-2; Caron, Marietta, OH, USA). There, the samples were exposed to a light source of 1.2 million lux·hr intensity. At scheduled time intervals, a few mg of the sample was drawn, and assayed for the drug content by HPLC method, as described above. At the end of the study period, the samples were physically inspected for any physical changes on the stability of MTX.

The subject of series [5] is Caco-2 cells. Briefly: MTT cytotoxicity assay. The conditions noted are these: up to 200 µM, 24 h incubation. Format: cell-based, human. The protocol:
An MTT assay was used to assess the potential cytotoxic behavior of MTX and MTX/DM-β-CD on human intestinal epithelial cancer cells (Caco-2). The Caco-2 cells were grown in DMEM supplemented with 10% FBS, 1% v/v sodium pyruvate, L-glutamine, penicillin, and MEM non-essential amino acids. The cells (2 × 10^4 cells/well) were then seeded onto 96-well transwell plates and incubated at 37 °C with 5% CO2 for 24 h. New medium containing the tested formulations i.e., MTX and MTX/DM-β-CD (IC4), with varying concentrations, were added and incubated for 24 h. The culture medium was then aspirated, and the viability of the cells was determined by adding 20 μL/well of MTT solution to each 96-well plate and incubating for another 4 h. The formazan crystals were dissolved by adding 150 μL/well DMSO. The developed formazan was assayed at 570 nm, using a microplate reader with untreated cells serving as a control. All the tests were carried out in two microplates with six parallel wells each.
In general terms: Formazan colour is commonly taken as a measure of viable cells.

Series [6] in a line: In vitro Caco-2 permeation experiment. The format is in vitro ADME. The conditions noted are these: human, Caco-2 monolayer, 50 µg/mL MTX. Here is the method: The in vitro permeability of MTX and MTX/DM-β-CD formulation was evaluated using Caco-2 cells (passage no 45) and performed like the previously reported method. The cells were seeded (5 × 10^5 cells/well) onto filter inserts from 12-well transwell plates and grown at 37 °C with 5% CO2 for 24 h. The cells were then cultured for three weeks, with the media being replaced on alternate days. Caco-2 cells with TEER ≥ 500 Ω·cm^2 were used in this experiment, which is indicative of adequate monolayer formation.
To evaluate the A to B transfer, the medium from each well was replaced with prewarmed HBSS (washing of monolayer) and maintained at 37 °C for 15 min. The HBSS solution on both sides of the cell monolayer was removed by decanting and aspiration from the lower end of the plate well. Then, 0.5 mL of HBSS (pH 7.4) medium containing 50 µg/mL of MTX alone or eqvt. concentration of MTX/DM-β-CD formulation was placed to the dosing compartment (A) and 1.5 mL of fresh HBSS in the receiving compartment (B). […] MTX was quantified at m/z 455.2 ⟶ 308.1 while berberine at m/z 336.1 ⟶ 320.0.
The apparent permeability coefficient (Papp, cm/s) was calculated as:(3) Papp=(dQ/dt)/(C0×A)
The efflux ratio (ER) was calculated as:(4) ER=Papp (B→A)/Papp (A→B) where, Papp (B → A) and Papp (A → B) represents the apparent permeability of the investigated formulations.
Background: Caco-2 monolayers are a common model of the intestinal barrier.

The conditions of series [7]: cited from earlier work.
The conditions of series [8]: for doses >40 mg/m^2; cited from earlier work.
Series [9] relates to Caco-2 cells. Also on record: method as in PMID 29498663, PMID 31761193. The conditions noted are these: read-out: half-maximal inhibitory concentration (IC50) against Caco-2 cells; cited from earlier work.
The mark [10] stands for this setting: male, Sprague-Dawley, rat, plasma.

Usually AUC stands for the area under the concentration-time curve, a measure of exposure. A word on the Tmax: it is the time at which the peak concentration occurs. In general, half-life refers to the time in which the quantity being followed falls by half. By Cmax is commonly meant the highest concentration seen after dosing. What is called Papp A→B is how fast a substance crosses the layer from the apical side.

With 2-hydroxylpropyl-β-CD [HP-β-CD], the “Stability Constant (Kα)” value in series [1] was determined as 433.56 M⁻¹.

With `COCC1OC2OC3C(COC)OC(OC4C(COC)OC(OC5C(COC)OC(OC6C(COC)OC(OC7C(COC)OC(OC8C(COC)OC(OC1C(O)C2OC)C(OC)C8O)C(OC)C7O)C(OC)C6O)C(OC)C5O)C(OC)C4O)C(OC)C3O` (stereo not drawn) [DM-β-CD, heptakis (2,6-di-O-methyl)-β-cyclodextrin], the “Stability Constant (Kα)” value in series [1] was 3114.69 M⁻¹.

For `CN(Cc1cnc2nc(N)nc(N)c2n1)c1ccc(C(=O)N[C@@H](CCC(=O)O)C(=O)O)cc1` [MTX, Methotrexate], in [2], the “Dx (10)” value is listed as 3.60 ± 0.48 μm, the “Dx (50)” value was 14.03 ± 2.97 μm and the “Dx (90)” value came to 103.73 ± 12.13 μm. Moreover, in series [3] (setting [10]), the area under the curve (AUC) was 1740 ± 295 ng·h/mL, the Tmax worked out at 1.13 ± 0.23 h, the half-life is 5.4 ± 0.72 h and the k el is 3.61e-05 s⁻¹. Also, the Cmax in series [3] worked out at 265.63 ± 57.05 ng/mL. For the same compound, the “decrease in MTX concentration after UV irradiation” value in [4] came to 36.8 ± 1.7%. The “cytotoxicity against Caco-2 cells” value in the series on Caco-2 cells [5] was “no substantial cytotoxicity”. Moreover, the Papp A→B at 1 h, 50 µg/mL in series [6] (HBSS pH 7.4, 1 h, read-out: Papp A to B transport) is 0.57 ± 0.14 ×10⁻⁶ cm/s. Also, in series [6] (HBSS pH 7.4, read-out: efflux ratio (B to A/A to B)), the efflux ratio at 1 h, 50 µg/mL stood at 8. The “C logP” value in series [7] is reported as 0.53. Further, in [8], the bioavailability is listed as ~ 18%.

For the compound `CC(=O)O[C@@]12CO[C@@H]1C[C@H](O)[C@@]1(C)C(=O)[C@H](O)C3=C(C)[C@@H](OC(=O)[C@H](O)[C@@H](NC(=O)OC(C)(C)C)c4ccccc4)C[C@@](O)([C@@H](OC(=O)c4ccccc4)[C@H]21)C3(C)C` [docetaxel], the IC50 in the series on Caco-2 cells [9] was 70 µM.

In the case of `COc1cccc2c1C(=O)c1c(O)c3c(c(O)c1C2=O)C[C@@](O)(C(=O)CO)C[C@@H]3O[C@H]1C[C@H](N)[C@H](O)[C@H](C)O1` [doxorubicin], in the series on Caco-2 cells [9], the IC50 was 5 µM.

Regarding `OC[C@H]1O[C@@H]2O[C@H]3[C@H](O)[C@@H](O)[C@@H](O[C@H]4[C@H](O)[C@@H](O)[C@@H](O[C@H]5[C@H](O)[C@@H](O)[C@@H](O[C@H]6[C@H](O)[C@@H](O)[C@@H](O[C@H]7[C@H](O)[C@@H](O)[C@@H](O[C@H]8[C@H](O)[C@@H](O)[C@@H](O[C@H]1[C@H](O)[C@H]2O)O[C@@H]8CO)O[C@@H]7CO)O[C@@H]6CO)O[C@@H]5CO)O[C@@H]4CO)O[C@@H]3CO` [β-CD, β-cyclodextrin], in series [1], the “Stability Constant (Kα)” value was found to be 552.25 M⁻¹.

On to methyl-β-cyclodextrin [M-β-CD], for which the “Stability Constant (Kα)” value in [1] is 574.48 M⁻¹.
